Experimental data as given in patent US9242969B2, “Biaryl amide compounds as kinase inhibitors” (Novartis AG, priority 2013, dated 2016).

biological target: C-Raf TR (Δ1-324 deletion mutant with activating mutations) (Homo sapiens (Human), UniProt P04049, Y340E/Y341E); format: biochemical; details: truncated C-Raf (Δ1-324), ATP 3 uM, 10 nM biotinylated MEK1 kinase dead
Description: biotinylated Mek, Kinase dead approximately 10 nM
Pre-incubation time with compounds 30 minutes at room temperature
Reaction time 2 hours at room temperature
Plates were sealed and stored overnight in the dark at room temperature. Plates were counted in a Perkin Elmer Envision instrument.

Sequence of C-Raf TR (Δ1-324 deletion mutant with activating mutations) (P04049 325-648 Y340E/Y341E): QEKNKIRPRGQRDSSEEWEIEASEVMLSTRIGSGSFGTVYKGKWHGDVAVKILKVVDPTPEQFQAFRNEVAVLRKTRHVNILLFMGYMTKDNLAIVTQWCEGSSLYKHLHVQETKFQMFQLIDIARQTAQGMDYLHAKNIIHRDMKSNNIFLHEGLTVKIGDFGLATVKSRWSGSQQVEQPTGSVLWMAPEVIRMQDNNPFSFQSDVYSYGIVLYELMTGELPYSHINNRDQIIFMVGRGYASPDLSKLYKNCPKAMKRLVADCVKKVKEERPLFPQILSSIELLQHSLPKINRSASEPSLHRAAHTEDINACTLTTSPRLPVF

Row | IC50 [nM] | Structure (SMILES)
1 | 0.27 | Cc1ccc(NC(=O)c2cccc(C(F)(F)F)c2)cc1-c1cn(C)c(=O)c(N2CCOCC2)n1 [Example 119, N-(4-methyl-3-(4-methyl-6-morpholino-5-oxo-4,5-dihydropyrazin-2-yl)phenyl)-3-(trifluoromethyl)benzamide]
2 | 0.803 | Cc1ccc(C(=O)Nc2cccc(C(F)(F)F)c2)cc1-c1nc(N2CCOCC2)cc(N2CCOCC2)n1 [Example 14, 3-(4,6-dimorpholinopyrimidin-2-yl)-4-methyl-N-(3-(trifluoromethyl)phenyl)benzamide]
3 | 0.508 | Cc1ccc(C(=O)Nc2cccc(C(F)(F)F)c2)cc1-c1ccnc(N2CCOCC2)c1 [Example 63, 4-Methyl-3-(2-morpholinopyridin-4-yl)-N-(3-(trifluoromethyl)phenyl)benzamide]
4 | 1.29 | Cc1ccc(NC(=O)c2cccc(C(F)(F)F)c2)cc1-c1csc(N2CCOCC2)n1 [Example 199, N-(4-methyl-3-(2-morpholinothiazol-4-yl)phenyl)-3-(trifluoromethyl)benzamide]
5 | 0.308 | Cc1ccc(NC(=O)c2cccc(C(F)(F)F)c2)cc1-c1cncc(N2CCOCC2)n1 [Example 118, N-(4-methyl-3-(6-morpholinopyrazin-2-yl)phenyl)-3-(trifluoromethyl)benzamide]
